Results on nine compounds are retold here after US9339486B2, “Heterocyclic modulators of cannabinoid receptors” (THE CLEVELAND CLINIC FOUNDATION, priority 2008, dated 2016).

Data set [1] has as its target T1, CB1 (Homo sapiens (Human), UniProt P21554). As to the kind of experiment: CB1 Binding Assay ([3H]CP 55940, cell membrane homogenates). The conditions noted are these: for % Inhibition of Control Specific Binding / % of Control Specific Binding Mean / % of Control Specific Binding 1st / % of Control Specific Binding 2nd: CB1, test concentration 1.0E−05 (MD); for % of Control Specific Binding 1st: first replicate; for % of Control Specific Binding 2nd: second replicate. Here is the method:
(§1) After being incubated, the samples were filtered rapidly under vacuum through glass fiber filters (GF/B; Packard) presoaked with 0.3% PEI and rinsed several times with ice-cold buffer containing 50 mM Tris HCl (pH 7.4) and 0.5% BSA using a 96-sample cell harvester (Unifilter; Packard). The filters were dried then counted for radioactivity in a scintillation counter (Topcount; Packard) using a scintillation cocktail (Microscint 0; Packard). The results were expressed as a percentage of the inhibition of the control radioligand-specific binding. The reference standard compounds were tested in each experiment at several concentrations to obtain a competition curve from which its IC50 was calculated.

For data set [2], the target named is T2, CB2 (Homo sapiens (Human), UniProt P34972). As to the kind of experiment: CB2 Binding Assay ([3H]WIN 55212-2, cell membrane homogenates). The conditions noted are these: for % Inhibition of Control Specific Binding / % of Control Specific Binding Mean / % of Control Specific Binding 1st / % of Control Specific Binding 2nd: CB2, test concentration 1.0E−05 (MD); for % of Control Specific Binding 1st: first replicate; for % of Control Specific Binding 2nd: second replicate. Here is the method: as §1, with “Cell membrane homogenates (15 μg protein) were incubated for 120 min at 37° C. with 0.8 nM [3H]WIN 55212-2 (the reference standard [Munro, 1993 #1321]) in the absence or presence of the test compound in a buffer containing 50 mM HEPES/Tris HCL (pH 7.4), 5 mM MgCl2, 2.5 mM EGTA, and 0.1% BSA. Nonspecific binding was determined in the presence of 10 μM WIN 55212-2. After” for “After”

Data set [3] concerns spinal nerve ligation neuropathic pain model. As to the kind of experiment: Tactile allodynia in SNL neuropathic pain model (von Frey). The class given is in vivo, rat. The conditions noted are these: for effect of antagonist alone on paw withdrawal threshold: 5 mg/kg i.p. alone. Here is the method: Adult, male Sprague Dawley (Harlan Sprague Dawley, Indianapolis, Ind.) rats weighing 120-150 gm were used in experimental procedures approved by the Animal Care and Use Committee of the M. D. Anderson Cancer Center, University of Texas. Animals were housed three per cage on a 12/12 hr light/dark cycle with water and food pellets available ad libitum.
All surgical procedures were performed under deep isoflurane anesthesia in 100% 02. The spinal nerve ligation (SNL) was performed as described previously. Kim, S. H., et al., An Experimental Model for Peripheral Neuropathy Produced by Segmental Spinal Nerve Ligation in the Rat, Pain, 1992, 50:355-63. Briefly, a midline incision above the lumbar spine exposed the left L6 transverse process. The process was then removed, the left L5 and L6 spinal nerves were isolated, and both nerves were tightly ligated with 6-0 silk. Prophylactic antibiotic (norfloxacin 5 mg/kg subcutaneously) and analgesic (buprenorphine, 0.2-0.5 mg/kg, or morphine, 2.5 mg/kg, given subcutaneously) were administered once daily for 3 days. All the experiments were conducted 10-14 days after spinal nerve ligation.
(§2) Rats were placed in a compartment with a wire mesh bottom and allowed to acclimate for a minimum of 30 min before testing. Mechanical sensitivity was assessed using a series of Von Frey filaments with logarithmic incremental stiffness (0.41, 0.70, 1.20, 2.00, 3.63, 5.50, 8.50, and 15.1 g) (Stoelting, Wood Dale, Ill.) as previously described, and 50% probability withdrawal thresholds were calculated with the up-down method. Chaplan, S. R., et al., Quantitative Assessment of Tactile Allodynia in the Rat Paw, J. Neurosci. Methods, 1994, 53:55-63; Dixon, W., The Up-and-Down Method for Small Samples, J. Am. Stat. Assoc., 1965, 60:967-78. In brief, beginning with the 2.0-g probe, filaments were applied to the plantar surface of a hind paw for 6-8 s, in an ascending or descending order after a negative or positive withdrawal response, respectively. Six consecutive responses from the first change in the response were used to calculate the withdrawal threshold (in grams). In cases where response thresholds fell outside the range of detection, 15.00 and 0.25 g were, respectively, assigned for continuous negative or positive responses to the limit of stimuli. The percent maximal possible effect (% MPE) was calculated as ([postdrug threshold−baseline threshold]/[cutoff threshold (15 g)−baseline threshold])×100.
(§3) Statistical analyses were carried out using BMDP 2007 (Statistical Solutions, Saugus, Mass., USA) and Graph Pad Prism (version 4.03; Graph Pad Software Inc., San Diego, Calif., USA). Data were analyzed using one-way ANOVA, repeated measures ANOVA, or t-test where appropriate. If ANOVA was significant, Tukey-Kramer post hoc analysis was used for multiple group comparison. Area under the curve (AUC) was calculated using the trapezoidal rule. The results are presented as mean±s.e. mean and were considered significant at P<0.05. Analyses of the dose-response curves and statistics were obtained using the pharmacologic software programs of Tallarida and Murray and included calculation of the ED50 values and their 95% confidence intervals (CI). Tallarida, R. J., et al., Manual of Pharmacologic Calculations With Computer Programs, Second ed. New York: Springer-Verlag, 1987.

The subject of data set [4] is paclitaxel-induced neuropathic pain model. As to the kind of experiment: animal or person. It is filed as in vivo, rat. Here is the method:
Groups of rats received daily i.p. injections of either vehicle or 1.0 mg/kg paclitaxel daily for four consecutive days for a final cumulative dose of 4 mg/kg; using an injection volume of 1 ml/kg. Polomano, R. C., et al., A Painful Peripheral Neuropathy in the Rat Produced by the Chemotherapeutic Drug, Paclitaxel, Pain, 2001, 94:293-304. The vehicle used in our experiments was the same vehicle used clinically for paclitaxel injections and is composed of a mixture of 10% saline and Cremophor EL® and […]. Baseline responses to mechanical stimulation of the hindpaw (see below) were established on day zero and continued daily until the development of neuropathy was confirmed.
as §2
To determine sensitivity to noxious heat, rats were placed in plexiglass enclosures on a transparent glass surface maintained at 30° C. and allowed to acclimate for 30 min. A thermal testing apparatus, consisting of a heat-emitting projector lamp and an electronic timer, was used. The device was activated after the lamp is placed directly beneath the planter surface of the hindpaw. The paw withdrawal latency in response to the radiant heat was recorded by a digital timer. A cutoff of 30 s was used to prevent potential tissue damage. After the baseline was measured, three groups of naïve rats (n=10) received 1.0, 3.0, or 10 mg/kg of the compound of Example 3 i.p. Response latencies were determined twice for each rat before drug injection and at 5, 10, 15, 30, 45, 60, 90 and 120 min after IP injection. The percent maximal possible effect (% MPE) was calculated as ([postdrug latency−baseline latency]/[cutoff time (30 s)−baseline latency])×100.
as §3

Data set [5] concerns the target T2, CB2. As to the kind of experiment: CB1/CB2 Functional Assay (GTPγ[35S]), CB2 membranes. It is filed as biochemical. Here is the method: (§4) A dose response curve was generated at eight concentrations in duplicate on CB1 and CB2 in light of reference agonists. The reference agonists for cannabinoid receptors was CP55,940. See FIGS. 1A, 1B, 2A, 2B, 3A and 3B.
(§5) Membranes (CB1, ES-110-MG or CB2, ES-111-MG) were mixed with GDP (volume:volume) and incubated for at least 15 min on ice. In parallel, GTPγ[^35S] were mixed with the beads (volume:volume) just before starting the reaction. The following reagents were successively added in the wells of an Optiplate: 50 μl of ligand, 20 μl of the membranes:GDP mix, 10 μl of assay buffer for agonist testing and 20 μl of the GTPγ[^35S]: beads mix. The plates were covered with a topseal, shaken on an orbital shaker for 2 min, and then incubated between 30 to 60 min. at room temperature. Then the plates were centrifuged for 10 min at 2000 rpm, incubated at room temperature between 1 to 4 hours and counted for 1 min with a PerkinElmer TopCount reader.

In data set [6] the target is T1, CB1. As to the kind of experiment: CB1/CB2 Functional Assay (GTPγ[35S]), CB1 membranes. The class given is biochemical. Here is the method: as §4, §5

T1 sequence (P21554 whole entry): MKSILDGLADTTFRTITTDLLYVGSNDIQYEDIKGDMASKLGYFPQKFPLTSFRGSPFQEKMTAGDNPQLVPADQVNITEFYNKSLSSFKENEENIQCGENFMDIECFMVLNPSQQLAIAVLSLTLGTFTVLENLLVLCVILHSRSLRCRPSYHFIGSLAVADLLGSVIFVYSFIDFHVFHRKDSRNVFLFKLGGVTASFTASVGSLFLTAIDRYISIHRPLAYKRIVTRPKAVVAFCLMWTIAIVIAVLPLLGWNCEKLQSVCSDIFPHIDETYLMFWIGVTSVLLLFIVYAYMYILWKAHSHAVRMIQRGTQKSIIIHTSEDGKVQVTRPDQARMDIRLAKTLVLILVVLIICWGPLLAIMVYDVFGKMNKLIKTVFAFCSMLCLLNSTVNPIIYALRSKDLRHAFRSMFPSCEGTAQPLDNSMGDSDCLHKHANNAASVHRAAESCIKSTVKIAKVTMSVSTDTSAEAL
T2 sequence (P34972 whole entry): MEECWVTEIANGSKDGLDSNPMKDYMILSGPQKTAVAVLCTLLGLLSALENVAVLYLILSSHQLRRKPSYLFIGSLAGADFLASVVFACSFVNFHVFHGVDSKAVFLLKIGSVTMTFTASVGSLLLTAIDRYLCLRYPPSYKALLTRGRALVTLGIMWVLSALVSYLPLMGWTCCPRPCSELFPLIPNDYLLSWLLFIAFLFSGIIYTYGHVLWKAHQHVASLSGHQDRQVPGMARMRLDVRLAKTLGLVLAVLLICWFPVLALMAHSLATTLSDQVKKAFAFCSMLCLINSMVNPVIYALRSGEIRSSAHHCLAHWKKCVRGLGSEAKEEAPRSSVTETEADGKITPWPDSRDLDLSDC

Regarding `CC1(Cc2ccccc2)COc2cc(C(=O)Nc3ccccc3I)ccc21` (stereo not shown) [Example 1, 3-Benzyl-3-methyl-2,3-dihydro-benzofuran-6-carboxylic acid (2-iodo-phenyl)-amide], at CB1 [1], the “% Inhibition of Control Specific Binding” value amounted to 14%, the “% of Control Specific Binding Mean” value was 85.5%, the “% of Control Specific Binding 1st” value came to 85.7% and the “% of Control Specific Binding 2nd” value was 85.3%. Besides, at CB2 [2], the “% Inhibition of Control Specific Binding” value is 23%, the “% of Control Specific Binding Mean” value was found to be 76.6%, the “% of Control Specific Binding 1st” value is listed as 78.3% and the “% of Control Specific Binding 2nd” value is on record as 74.8%.
`Cc1c(C(=O)NN2CCCCC2)nn(-c2ccc(Cl)cc2Cl)c1-c1ccc(I)cc1` [AM251, reference compound]: the “effect of antagonist alone on paw withdrawal threshold” value in data set [3] is given as “had no effect”.
As for `CN1CCCCC1Cn1cc(C(=O)c2cc([N+](=O)[O-])ccc2I)c2ccccc21` (stereo not shown) [AM1241, reference compound], in data set [3] (15 mg/kg i.p.), the “antiallodynic effect versus vehicle” value is “produced antiallodynic effects”. In addition, in data set [3] (AM1241 15 mg/kg i.p.), the “effect of naloxone pretreatment on analgesic effects” value is “significantly reversed”. Besides, in data set [4] (5 mg/kg i.p.), the “effect on reversing thermal hyperalgesia compared with 15 mg/kg compound of Example 3 i.p.” value is “significantly less than”.
For `COc1ccc(C(=O)c2c(C)n(CCN3CCOCC3)c3cc(I)ccc23)cc1` [AM630, reference compound], the “effect of antagonist alone on paw withdrawal threshold” value in data set [3] is “had no effect”.
On to `CC(=O)O[C@H]1C(=O)[C@@]2(C)[C@H]([C@H](OC(=O)c3ccccc3)[C@]3(O)C[C@H](OC(=O)[C@H](O)[C@@H](NC(=O)c4ccccc4)c4ccccc4)C(C)=C1C3(C)C)[C@]1(OC(C)=O)CO[C@@H]1C[C@@H]2O` [paclitaxel, reference compound], for which, in data set [4] (rat, in vivo), the “paw withdrawal threshold to mechanical stimulation, left paw” value came out at 2.8 ± 0.15 g and the “paw withdrawal threshold to mechanical stimulation, right paw” value was 2.9 ± 0.19 g.
Broadly, the EC50 is the concentration that produces a half-maximal response. As to `CC1(Cc2ccccc2)COc2ccc(C(=O)NC3CCCCC3)cc21` (stereo not shown) [Example 5, 3-benzyl-3-methyl-2,3-dihydrobenzofuran-5-carboxylic acid-cyclohexylamide], on CB1 [1], the “% Inhibition of Control Specific Binding” value came to 43%, the “% of Control Specific Binding Mean” value is given as 57.2%, the “% of Control Specific Binding 1st” value came to 53.5% and the “% of Control Specific Binding 2nd” value worked out at 60.8%. The “% Inhibition of Control Specific Binding CB1” value on CB1 [1] (as repeated in Table 3) is on record as 43%. In addition, at CB2 [2], the “% Inhibition of Control Specific Binding” value turned out to be 72%, the “% of Control Specific Binding Mean” value is given as 27.5%, the “% of Control Specific Binding 1st” value worked out at 29.9% and the “% of Control Specific Binding 2nd” value is 25.1%. Further, on CB2 [2] (as repeated in Table 4), the “% Inhibition of Control Specific Binding CB2” value is given as 72%. For the same compound, on CB2 [5], the “Compound Function” value is “Agonist”. The 50% effective concentration (EC50) at CB2 [5] (read-out: EC50 (nM) for GTP Binding) is 409 nM. Besides, the “% Activation Average” value at CB2 [5] (reference agonist CP55,940) is reported as 55.71%. The “Compound Function” value at CB1 [6] is recorded as “Inverse”. Besides, on CB1 [6] (reference agonist CP55,940), the “% Activation Average” value is recorded as −36.02%.
On to `CC1(Cc2ccccc2)COc2ccc(C(=O)N3CCCCC3)cc21` (stereo not shown) [Example 6, 3-benzyl-3-methyl-2,3-dihydrobenzofuran-5-carboxylic acid-piperidine amide], for which, on CB2 [2], the “% Inhibition of Control Specific Binding” value was 31%, the “% of Control Specific Binding Mean” value is 69.4%, the “% of Control Specific Binding 1st” value was found to be 71.6% and the “% of Control Specific Binding 2nd” value is reported as 67.3%.
With `CC1(Cc2ccccc2)COc2ccc(C(=O)Nc3ccccc3I)cc21` (stereo not shown) [Example 4, 3-Benzyl-3-methyl-2,3-dihydro-benzofuran-5-carboxylic acid-o-iodoanilide], on CB1 [1], the “% Inhibition of Control Specific Binding” value turned out to be 9%, the “% of Control Specific Binding Mean” value turned out to be 90.5%, the “% of Control Specific Binding 1st” value is on record as 85.9% and the “% of Control Specific Binding 2nd” value came to 95.1%. Further, on CB2 [2], the “% Inhibition of Control Specific Binding” value stood at 15%, the “% of Control Specific Binding Mean” value was 84.7%, the “% of Control Specific Binding 1st” value is on record as 83.9% and the “% of Control Specific Binding 2nd” value came out at 85.5%.
Take `C=CCN1CC[C@]23c4c5ccc(O)c4O[C@H]2C(=O)CC[C@@]3(O)[C@H]1C5` [naloxone, reference compound]: the “effect per se on paw withdrawal threshold” value in data set [3] (10 mg/kg i.p.) was “did not affect paw withdrawal threshold”.
